Test results as given in patent US20240041042A1, “1-(PYRIDYL)-5-AZINYLPYRAZOLE DERIVATIVES, AND THEIR USE FOR CONTROL OF UNDESIRED PLANT GROWTH” (Bayer Aktiengesellschaft, priority 2020, published 2024).
Read-outs that look alike come from different tables or passages of the source.

How the values were obtained:
Format in all cases: in vivo
[1] = tested on: Echinochloa crus-galli (ECHCG); assay: Post-emergence herbicidal action against ECHCG; settings: dosage 320 g/ha
Outline: (§1)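 Greenhouse plants sprayed at the one-leaf stage, 2–3 weeks after sowing, with WP or EC formulations plus 0.5% additive at 600 l/ha water. Activity rated visually after about 3 weeks versus untreated controls (100% = dead, 0% = like control), at 320 g/ha or lower.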

Oryza sativa (ORYSA) = settings: crop plant compatibility
Outline: (§2)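 Percent effect on the crop was judged by eye against untreated controls, where 0% means like control and 100% means dead plants. Plants had been sprayed post-emergence at the one-leaf stage and then kept under optimum greenhouse conditions for about 3 weeks.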

[2] = tested on: Triticum aestivum (TRZAS); settings: crop plant compatibility, effect vs untreated controls
Outline: as §2

Zea mays (ZEAMX) = settings: for Post-emergence action against ZEAMX in % (crop plant compatibility): 20 g/ha, effect in comparison to untreated controls; for Post-emergence action against ZEAMX in %: crop plant compatibility, effect vs untreated controls
Outline: as §2

Avena fatua (AVEFA) = assay: Post-emergence herbicidal action against AVEFA; settings: 320 g/ha, visual rating about 3 weeks after treatment
Outline: as §1

[3] = tested on: Verconica persica (VERPE); assay: Post-emergence herbicidal action against VERPE
Outline: as §1

Viola tricolor (VIOTR) [4] = assay: Post-emergence herbicidal action against VIOTR
Outline: as §1

[5] = tested on: Abutilon theophrasti (ABUTH); assay: Post-emergence herbicidal action against ABUTH; settings: 320 g/ha, visual rating about 3 weeks after treatment vs untreated controls (100% = plants have died, 0% = like control plants)
Outline: as §1

[6] = tested on: Alopecurus myosuroides (ALOMY); assay: Post-emergence herbicidal action against ALOMY; settings: 320 g/ha, visual rating about 3 weeks after treatment vs untreated controls (100% = plants have died, 0% = like control plants)
Outline: as §1

[7] = tested on: Pharbitis purpurea (PHBPU); assay: Post-emergence herbicidal action against PHBPU; settings: dosage 320 g/ha
Outline: as §1

[8] = tested on: Polygonum convolvulus (POLCO); assay: Post-emergence herbicidal action against POLCO
Outline: as §1

Setaria viridis (SETVI) = assay: Post-emergence herbicidal action against SETVI; settings: dosage 320 g/ha
Outline: as §1

[9] = tested on: Amaranthus retroflexus (AMARE); assay: Post-emergence herbicidal action against AMARE; settings: 320 g/ha, visual rating about 3 weeks after treatment
Outline: as §1

Lolium rigidum (LOLRI) = assay: Post-emergence herbicidal action against LOLRI; settings: dosage 320 g/ha
Outline: as §1

[10] = tested on: Verconica persica (VERPE); assay: Pre-emergence herbicidal action against VERPE; settings: dosage 320 g/ha
Outline: (§3)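 Seeds sown in pots and covered with soil; WP or EC formulations sprayed onto the soil surface at 600 l/ha water with 0.5% additive, at 320 g/ha or lower. Greenhouse growth for about 3 weeks, then visual scoring as % effect against untreated controls (100% = plants dead).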

[11] = tested on: Echinochloa crus-galli (ECHCG); assay: Pre-emergence herbicidal action against ECHCG; settings: dosage 320 g/ha
Outline: as §3

[12] = tested on: Polygonum convolvulus (POLCO); assay: Pre-emergence herbicidal action against POLCO; settings: dosage 320 g/ha
Outline: as §3

Viola tricolor (VIOTR) [13] = assay: Pre-emergence herbicidal action against VIOTR; settings: 320 g/ha, Viola tricolor
Outline: as §3

[14] = tested on: Amaranthus retroflexus (AMARE); assay: Pre-emergence herbicidal action against AMARE; settings: 320 g/ha, visual scoring after about 3 weeks vs untreated controls
Outline: as §3

[15] = 20 g/ha, effect vs untreated controls
[16] = 80 g/ha, effect in comparison to untreated controls
[17] = 320 g/ha, effect in comparison to untreated controls

Row | Structure (SMILES) | Post-emergence action against ORYSA in % (Oryza sativa (ORYSA); [15]) | Post-emergence action against ORYSA in % (Oryza sativa (ORYSA); [16]) | Post-emergence action against ORYSA in % (Oryza sativa (ORYSA); [17]) | Post-emergence action against TRZAS in % ([2]; 20 g/ha) | Post-emergence action against TRZAS in % ([2]; 80 g/ha) | Post-emergence action against ZEAMX in % (crop plant compatibility) (Zea mays (ZEAMX)) | Post-emergence action against ZEAMX in % (Zea mays (ZEAMX); 80 g/ha) | Post-emergence action against ZEAMX in % (Zea mays (ZEAMX); 320 g/ha) | Post-emergence action against ECHCG in % [1] | Post-emergence action against AVEFA in % (Avena fatua (AVEFA)) | Post-emergence action against VERPE in % ([3]; 320 g/ha, VERPE) | Post-emergence action against VERPE in % ([3]; dosage 80 g/ha) | Post-emergence action against VIOTR in % (Viola tricolor (VIOTR) [4]; 80 g/ha) | Post-emergence action against VIOTR in % (Viola tricolor (VIOTR) [4]; 320 g/ha) | Post-emergence action against ABUTH in % [5] | Post-emergence action against ALOMY in % [6] | Post-emergence action against PHBPU in % [7] | Post-emergence action against POLCO in % ([8]; dosage 320 g/ha) | Post-emergence action against SETVI in % (Setaria viridis (SETVI)) | Post-emergence action against AMARE in % [9] | further results
1 | COC(=O)[C@@H](C)Oc1nn(-c2ncccc2F)c(-c2ccnc(F)c2)c1I [Example I-138] | 0% | 0% | 20% | 10% |  | 20% | 20% |  | 90% |  | 80% |  | 80% | 80% | 80% |  | 80% | 80% | 80% |  | Post-emergence action against LOLRI in % (Lolium rigidum (LOLRI)): 90%
2 | COC(=O)CNC(=O)COc1nn(-c2ncccc2C(F)(F)F)c(-c2cncc(F)c2)c1Br [Example I-205] |  | 0% | 10% |  | 10% |  | 0% | 0% |  |  |  |  |  |  |  |  |  |  |  |  | Post-emergence action against TRZAS in % ([2]; 320 g/ha): 10%; Pre-emergence action against VERPE in % [10]: 100%; Pre-emergence action against ECHCG in % [11]: 80%; Pre-emergence action against POLCO in % [12]: 80%; Pre-emergence action against VIOTR in % (Viola tricolor (VIOTR) [13]): 100%; Pre-emergence action against AMARE in % [14]: 80%
3 | O=C(O)COc1nn(-c2ccccn2)c(-c2ccc(F)nc2)c1C1CC1(F)F (centres unmarked) [Example I-249] |  |  |  | 0% | 0% | 0% | 20% |  |  |  | 80% |  | 80% | 80% | 80% |  |  |  |  |  | Post-emergence action against TRZAS in % ([2]; 320 g/ha): 0%

Continued, in another order:

Row | Post-emergence action against ORYSA in % (Oryza sativa (ORYSA); [15]) | Post-emergence action against ORYSA in % (Oryza sativa (ORYSA); [16]) | Post-emergence action against ORYSA in % (Oryza sativa (ORYSA); [17]) | Post-emergence action against TRZAS in % ([2]; 20 g/ha) | Post-emergence action against TRZAS in % ([2]; 80 g/ha) | Post-emergence action against ZEAMX in % (crop plant compatibility) (Zea mays (ZEAMX)) | Post-emergence action against ZEAMX in % (Zea mays (ZEAMX); 80 g/ha) | Post-emergence action against ZEAMX in % (Zea mays (ZEAMX); 320 g/ha) | Structure (SMILES) | Post-emergence action against ECHCG in % [1] | Post-emergence action against AVEFA in % (Avena fatua (AVEFA)) | Post-emergence action against VERPE in % ([3]; 320 g/ha, VERPE) | Post-emergence action against VERPE in % ([3]; dosage 80 g/ha) | Post-emergence action against VIOTR in % (Viola tricolor (VIOTR) [4]; 80 g/ha) | Post-emergence action against VIOTR in % (Viola tricolor (VIOTR) [4]; 320 g/ha) | Post-emergence action against ABUTH in % [5] | Post-emergence action against ALOMY in % [6] | Post-emergence action against PHBPU in % [7] | Post-emergence action against POLCO in % ([8]; dosage 320 g/ha) | Post-emergence action against SETVI in % (Setaria viridis (SETVI)) | Post-emergence action against AMARE in % [9] | further results
4 | 0% | 0% | 0% | 0% | 10% | 0% | 0% | 0% | Cc1ncccc1-n1nc(OCC(=O)O)c(Br)c1-c1cncc(F)c1 [II-38] | 90% | 90% | 90% | 80% | 90% | 90% | 80% | 100% | 80% | 90% | 90% | 80% | 
5 | 0% | 0% | 0% | 0% | 20% | 0% | 0% | 20% | Cc1ncccc1-n1nc(OCC(=O)OCc2ccccn2)c(Br)c1-c1cncc(F)c1 [II-39] | 90% | 90% | 90% | 80% | 80% | 90% | 80% | 90% | 90% |  | 90% | 80% | 
6 | 0% | 0% | 0% | 0% | 20% | 0% | 0% | 10% | COCCOC(=O)COc1nn(-c2cccnc2C)c(-c2cncc(F)c2)c1Br [II-40] | 90% | 90% | 90% | 80% | 90% | 90% | 80% | 90% | 80% | 80% | 90% | 80% | Post-emergence action against POLCO in % ([8]; dosage 80 g/ha): 80%
